# Assay results published in US10792289B2 (Horizon Orphan LLC, priority 2009, dated 2020).
# Where two headings read alike, the source gives them in different places.
# Experiments:
# B. cepacia = test: Levofloxacin MIC against B. cepacia; assay type: cell-based; settings: Burkholderia cepacia
# stable CF patients = test: Phase 2 study: CFQ-R questionnaire; assay type: in vivo, human
# Method: The following dosage regimens (as nebulizer loaded doses) were evaluated: 120 mg QD (daily); 240 mg QD (daily); and 240 mg BID (twice daily).
# Patients were assessed on Day 1, 7, 14, and 28, and then up to 28 days after completion of study drug, namely, Days 42 and 56. The end of the study was defined as the last visit of the last patient.
# Efficacy was evaluated by microbiologic assessment of sputum samples, time to need for anti-pseudomonal antimicrobials, the Cystic Fibrosis Questionaire-Revised (CFQ-R), and pulmonary function tests. […] Pair-wise comparisons between all the treatment arms were conducted as secondary analyses.
# Patients completed the CFQ-R questionnaire with domains that included: respiratory, body image, digestion, eating, emotion, health perception, physical, role/school, social, treatment burden, vitality, and weight.
# [1] = EE population, Combined 240 mg QD and BID
smiles,measurement,setting,value
"C[C@H]1COc2c(N3CCN(C)CC3)c(F)cc3c(=O)c(C(=O)O)cn1c23 [Levofloxacin, levofloxacin]",MIC,B. cepacia,> 128 µg/mL
same,MIC,"B. cepacia; five strains tested in mouse model, read-out: MICs of five B. cepacia strains",0.25 to 8 µg/mL
same,MIC,"B. cepacia; strain BC1012, read-out: MIC",4 µg/mL
same,MIC,"B. cepacia; strain BC1013, read-out: MIC",0.25 µg/mL
same,MIC,"B. cepacia; strain BC1014, read-out: MIC",1 µg/mL
same,MIC,"B. cepacia; strain BC1020, read-out: MIC",8 µg/mL
same,MIC,"B. cepacia; strain BC1021, read-out: MIC",8 µg/mL
same,"Respiratory domain of CFQ-R, Change from Baseline to Day 14, Mean","stable CF patients; EE population, 120 mg QD",4.3
same,"Respiratory domain of CFQ-R, Change from Baseline to Day 14, Median","stable CF patients; EE population, 120 mg QD",5.5
same,"Respiratory domain of CFQ-R, Change from Baseline to Day 28, Mean","stable CF patients; EE population, 120 mg QD",1.6
same,"Respiratory domain of CFQ-R, Change from Baseline to Day 28, Median","stable CF patients; EE population, 120 mg QD",0.0
same,"Respiratory domain of CFQ-R, Day 1, Mean","stable CF patients; EE population, 120 mg QD",63.5
same,"Respiratory domain of CFQ-R, Day 1, Median","stable CF patients; EE population, 120 mg QD",66.7
same,"Respiratory domain of CFQ-R, Day 14, Mean","stable CF patients; EE population, 120 mg QD",67.8
same,"Respiratory domain of CFQ-R, Day 14, Median","stable CF patients; EE population, 120 mg QD",66.7
same,"Respiratory domain of CFQ-R, Day 28, Mean","stable CF patients; EE population, 120 mg QD",65.1
same,"Respiratory domain of CFQ-R, Day 28, Median","stable CF patients; EE population, 120 mg QD",66.7
same,"Respiratory domain of CFQ-R, Change from Baseline to Day 14, Mean","stable CF patients; EE population, 240 mg BID",8.5
same,"Respiratory domain of CFQ-R, Change from Baseline to Day 14, Median","stable CF patients; EE population, 240 mg BID",5.6
same,"Respiratory domain of CFQ-R, Change from Baseline to Day 28, Mean","stable CF patients; EE population, 240 mg BID",5.2
same,"Respiratory domain of CFQ-R, Change from Baseline to Day 28, Median","stable CF patients; EE population, 240 mg BID",5.5
same,"Respiratory domain of CFQ-R, Day 1, Mean","stable CF patients; EE population, 240 mg BID",60.3
same,"Respiratory domain of CFQ-R, Day 1, Median","stable CF patients; EE population, 240 mg BID",61.1
same,"Respiratory domain of CFQ-R, Day 14, Mean","stable CF patients; EE population, 240 mg BID",68.8
same,"Respiratory domain of CFQ-R, Day 14, Median","stable CF patients; EE population, 240 mg BID",72.2
same,"Respiratory domain of CFQ-R, Day 28, Mean","stable CF patients; EE population, 240 mg BID",66.0
same,"Respiratory domain of CFQ-R, Day 28, Median","stable CF patients; EE population, 240 mg BID",72.2
same,"Respiratory domain of CFQ-R, Change from Baseline to Day 14, Mean","stable CF patients; EE population, 240 mg QD",2.1
same,"Respiratory domain of CFQ-R, Change from Baseline to Day 14, Median","stable CF patients; EE population, 240 mg QD",0.0
same,"Respiratory domain of CFQ-R, Change from Baseline to Day 28, Mean","stable CF patients; EE population, 240 mg QD",1.0
same,"Respiratory domain of CFQ-R, Change from Baseline to Day 28, Median","stable CF patients; EE population, 240 mg QD",0.0
same,"Respiratory domain of CFQ-R, Day 1, Mean","stable CF patients; EE population, 240 mg QD",60.8
same,"Respiratory domain of CFQ-R, Day 1, Median","stable CF patients; EE population, 240 mg QD",61.1
same,"Respiratory domain of CFQ-R, Day 14, Mean","stable CF patients; EE population, 240 mg QD",63.2
same,"Respiratory domain of CFQ-R, Day 14, Median","stable CF patients; EE population, 240 mg QD",66.7
same,"Respiratory domain of CFQ-R, Day 28, Mean","stable CF patients; EE population, 240 mg QD",61.7
same,"Respiratory domain of CFQ-R, Day 28, Median","stable CF patients; EE population, 240 mg QD",66.7
same,"Respiratory domain of CFQ-R, Change from Baseline to Day 14, Mean",stable CF patients; [1],5.3
same,"Respiratory domain of CFQ-R, Change from Baseline to Day 14, Median",stable CF patients; [1],5.6
same,"Respiratory domain of CFQ-R, Change from Baseline to Day 28, Mean",stable CF patients; [1],3.0
same,"Respiratory domain of CFQ-R, Change from Baseline to Day 28, Median",stable CF patients; [1],0.0
same,"Respiratory domain of CFQ-R, Day 1, Mean",stable CF patients; [1],60.5
same,"Respiratory domain of CFQ-R, Day 1, Median",stable CF patients; [1],61.1
same,"Respiratory domain of CFQ-R, Day 14, Mean",stable CF patients; [1],66.0
same,"Respiratory domain of CFQ-R, Day 14, Median",stable CF patients; [1],66.7
same,"Respiratory domain of CFQ-R, Day 28, Mean",stable CF patients; [1],63.8
same,"Respiratory domain of CFQ-R, Day 28, Median",stable CF patients; [1],66.7
same,"CFQ-R respiratory, mean change from baseline","stable CF patients; EE, 120 mg QD, Baseline to Day 28",1.0 units
same,"Respiratory domain of CFQ-R, Change from Baseline to Day 14, Mean","stable CF patients; MITT population, 120 mg QD",4.5
same,"Respiratory domain of CFQ-R, Change from Baseline to Day 14, Median","stable CF patients; MITT population, 120 mg QD",5.5
same,"Respiratory domain of CFQ-R, Change from Baseline to Day 28, Mean","stable CF patients; MITT population, 120 mg QD",2.0
same,"Respiratory domain of CFQ-R, Change from Baseline to Day 28, Median","stable CF patients; MITT population, 120 mg QD",0.0
same,"Respiratory domain of CFQ-R, Day 1, Mean","stable CF patients; MITT population, 120 mg QD",62.3
same,"Respiratory domain of CFQ-R, Day 1, Median","stable CF patients; MITT population, 120 mg QD",61.1
same,"Respiratory domain of CFQ-R, Day 14, Mean","stable CF patients; MITT population, 120 mg QD",67.1
same,"Respiratory domain of CFQ-R, Day 14, Median","stable CF patients; MITT population, 120 mg QD",66.7
same,"Respiratory domain of CFQ-R, Day 28, Mean","stable CF patients; MITT population, 120 mg QD",64.6
